Entries after “also recorded” stand apart in the source; their conditions may differ. Where two headings read alike, the source gives them in different places.
How the values were obtained:
[1] = system: HT-29 (Human colon adenocarcinoma grade II); assay: Cytotoxicity test, IC50 determination by MTT test; type: cell-based; settings: 24 hr incubation, 20000 cells/well, 10% serum, read-out: IC50 ± SD (MTT-Test), HT-29
Protocol: (§1) Cytotoxicity Tests (IC50 Determination by MTT test)
(§2) The cytotoxicity of the compounds of the invention A1-A12 was tested in comparison to cis-Pt in four cancer cell-lines: […]
(§3) HT-29 (Human colon adenocarcinoma grade II) by MTT test after an incubation of 24 hours.
(§4) Culture Medium Preparation for Attached Cell-lines: A2780, A2780cisR, CRL-5803, HT-29. • Medium RPMI-1640: 86% • Serum (FCS-fatal calf serum/FBS-fatal bovine serum): 10% • L-Glutamine: 1% • Antibiotics-penicillin-streptomycin(P/S): 1% • Na pyruvate: 1% • HEPES: 1%

[2] = system: A2780 (ovarian carcinoma cell line); assay: Cytotoxicity test, IC50 determination by MTT test; type: cell-based; settings: 24 hr incubation, 20000 cells/well, 10% serum, read-out: IC50 ± SD (MTT-Test), A2780
Protocol: as §1
(§5) The cytotoxicity of the compounds of the invention A1-A12 was tested in comparison to cis-Pt in four cancer cell-lines:
A2780 (ovarian carcinoma cell line), […]
as §3, §4

[3] = system: CRL-5803 (non-small cell lung carcinoma cell line); assay: Cytotoxicity test, IC50 determination by MTT test; type: cell-based; settings: 24 hr incubation, 20000 cells/well, 10% serum, read-out: IC50 ± SD (MTT-Test), CRL5803
Protocol: as §1, §2
(§6) CRL-5803 (non-small cell lung carcinoma cell line), and
as §3, §4

[4] = system: A2780cisR (ovarian carcinoma-cisPt resistance cell line); assay: Cytotoxicity test, IC50 determination by MTT test; type: cell-based; settings: 24 hr incubation, 20000 cells/well, 10% serum, read-out: IC50 ± SD (MTT-Test), A2780cisR
Protocol: as §1, §2
A2780cisR (ovarian carcinoma-cisPt resistance cell line), […]
as §3, §4

[5] = Solubility of compounds in DMSO, ethanol and Solutol-HS15 (20 mM stock solutions); type: physicochemical
Protocol: General Procedure for the Solutol Emulsions Preparation
The amino-alcohol compound of the invention (4 μmol) was mixed with Solutol HS15 (6.0 mg) and heated to 70-80° C. Hot water (1 ml) was added to the mixture and stirred thoroughly. Thickening occurs initially due to hydration and reaches a maximum when half of the water has been added. The viscosity decreases as more water is added.
The solubility of compounds of the invention in ethanol and DMSO was tested in order to study their cytotoxicity.

Caspase-3 = assay: Apoptosis determination by Caspase-3 assay (EnzCheck Caspase-3 Assay Kit #2); type: cell-based; settings: 8 hr incubation
Protocol: Apoptosis Determination by Caspase-3 Assay
The assay was done according to the protocol of EnzCheck Caspase-3 Assay Kit #2 (Invitrogen) [Ref: 4].
Caspase-3 was checked using invitrogene protocol. 8 hr incubation was done.

[6] = system: SPM formation in A2780cisR cells; assay: Enzymatic assay in cells: formation of fluorescent SPM from Bodipy-12-CER (SMS inhibition), HPLC; type: cell-based; settings: 72 hr incubation in total, related to the control
Protocol: (§7) Enzymatic Assay in Cells (SMS, GCS and CDase Enzyme inhibition Studies) • Plate 10,000 cells in 0.5 ml culture media per well in a 48 well plate. • Incubate (37° C., 5% CO2) overnight to allow the cells to attach to the wells. • Add 10 μl of the fluorescent reagent BodiPy-12-Cer 0.5 μM/well. • After 48 hr incubation with the BodiPy-12-Cer, add 10 μl of the drug of interest dissolved in DMSO/Ethanol/solutol to each well. • Incubate (37° C., 5% CO2) for another 24 hr. • Remove the media. • Wash each well with 200 μl PBS. • Add 2000 trypsin allow sitting for 5 minutes in incubator. • Neutralize Trypsin with culture medium (complete to 1 ml) • Add suspension to 1.5 ml ephendorf. • Centrifuge for 5 minutes at 1200 rpm then remove the media. • Extract the cells with 1 ml of 1:2 CH2Cl2:MeOH by strong vortex stirring followed by centrifuge for 5 minutes at 13400 rpm. Then add the extraction into 2 ml ephendorf. • Extract the cells again with the same procedure with 1 ml of 1:1 CH2Cl2:MeOH. • Remove the solvent. • Add 2000 ethanol into the 2 ml ephendorf, do strong vortex stirring followed by centrifuge for 5 minutes at 13400 rpm. • Take 150 μl of the above sample and inject to the HPLC to quantify the relative metabolite relatively to control samples. • HPLC method conditions are:
(§8) Conditions: RP-8 Column, EX. λ 505 nm, EM. λ 530 nm
(§9) A fluorescent procedure was utilized in order to study the enzymatic inhibition of glucosylceramide synthase (GCS), ceramidases (CDase) and sphingomyelin synthase (SMS) enzymes, which can shed some light on a possible mechanism for ceramide accumulation and apoptosis. The fluorescent procedure was based on a 48-hr incubation of cancer cells with the fluorescent substrate, Bodipy (4,4-difluoro-4-bora-3a,4a-diaza-s-indacene), conjugated ceramide (Bodipy-12-CER) followed by another 24-hr period of incubation in the presence of nontoxic concentrations of compounds of the invention (72 hr incubation in total). After a predetermine incubation period, cells were washed, their lipids were extracted and the various lipids containing fluorescent fatty acid-ceramide, SPM and GC were quantified by HPLC.

[7] = system: SPM formation in A2780 cells; assay: as above; type: cell-based; settings: 72 hr incubation in total, related to the control
Protocol: as §7, §8, §9

[8] = system: A2780, A2780cisR, CRL-5803, HT-29; assay: Cytotoxicity (MTT), overall statements on the four cancer cell-lines; type: cell-based; settings: 24 hr, compared to cis-Pt
Protocol: as §1, §5
A2780 (ovarian carcinoma cell line),
A2780cisR (ovarian carcinoma-cisPt resistance cell line),
as §6, §3, §4

[9] = system: SPM formation in CRL5803 cells; assay: Enzymatic assay in cells: formation of fluorescent SPM from Bodipy-12-CER (SMS inhibition), HPLC; type: cell-based; settings: nontoxic concentrations (A2: 4, 6, 8, 12 μM/well; A10: 0.5, 1, 2, 4 μM/well), 72 hr
Protocol: as §7, §8, §9

[10] = system: SPM formation in HT-29 cells; assay: as above; type: cell-based, Human; settings: nontoxic concentrations (A2: 4, 6, 8, 12 μM/well; A10: 0.5, 1, 2, 4 μM/well), 72 hr
Protocol: as §7
Conditions: RP-8 Column, EX. λ 505 nm, EM. λ 530 nm […]

[11] = Solutol-HS15 lipidic emulsion, aqueous with cosolvent or surfactant or cyclodextrin, read-out: Solubility, Solutol-HS15
[12] = organic solvent or mixture, DMSO, 20 mM stock solutions, read-out: Solubility, DMSO
[13] = organic solvent or mixture, ethanol, 20 mM stock solutions, read-out: Solubility, Ethanol
[14] = Homo sapiens, HT-29, solutol solutions
[15] = Homo sapiens, A2780, solutol solutions
[16] = Homo sapiens, A2780cisR, solutol solutions
[17] = Homo sapiens, HT-29, ethanol solutions
[18] = Homo sapiens, A2780, ethanol solutions
[19] = Homo sapiens, A2780cisR, ethanol solutions

Structure (SMILES)	IC50 ([1]; ethanol solutions) [µM]	IC50 ([2]; ethanol solutions) [µM]	IC50 ([3]; ethanol solutions) [µM]	IC50 ([3]; solutol solutions) [µM]	IC50 ([4]; ethanol solutions) [µM]	solubility [5, 11] [mM]	solubility [5, 12] [mM]	solubility [5, 13] [mM]	IC50 [1, 14] [µM]	IC50 [2, 15] [µM]	IC50 [4, 16] [µM]	Solubility, Ethanol ([5]; ethanol, 20 mM stock solutions)	also measured
N.N.[Cl][Pt][Cl] [cis-Pt, reference compound]	> 100	30 ± 1	> 100	> 100	> 100								IC50 ([1]; solutol solutions): > 100 µM; IC50 ([2]; solutol solutions): 30 ± 1 µM; IC50 ([4]; solutol solutions): > 100 µM
CCCCCCCCCCCCCCCCC(O)CNCCCCCC (stereo not drawn) [Compound A3, 1-Hexyl-amino-octadecan-2-ol]				18 ± 2		> 4	< 20	< 20	19 ± 5	11 ± 1	9 ± 1		
CCCCCCCCCCCCCCNCC(O)CCCCCCCCC (stereo not drawn) [Compound A11, 1-tetradecyl-amino-undecan-2-ol]	30 ± 7	9 ± 2	33 ± 6		9 ± 3							✓*	
CCCCCCCCCC(O)CNCCCCCCCC (stereo not drawn) [Compound A9, 1-Octyl-amino-undecan-2-ol]			14 ± 1				< 20					✓*	IC50 [1, 17]: 11 ± 2 µM; IC50 [2, 18]: 7 ± 1 µM; IC50 [4, 19]: 10 ± 1 µM
CCCCCCCCCCCCCCCCC(O)CNCCCCCCCCCCCC (stereo not drawn) [Compound A5, 1-Dodecyl-amino-octadecan-2-ol]				> 100		> 4	< 20	< 20	> 100	> 100	> 100		
CCCCCCCCCCCCCCCCC(O)CNCCCC (stereo not drawn) [Compound A2, 1-Butyl-amino-octadecan-2-ol]				32 ± 4		> 4		< 20	16 ± 2	11 ± 3	12 ± 3		Caspase-3 increase (Caspase-3; 20 μM): 3 fold; solubility in ethanol and DMSO ([5]; 20 mM stock solutions): only soluble in DMSO; Solubility, DMSO ([5]; DMSO, 20 mM stock solutions): ✓*; inhibition of SPM formation ([6]; 6 μM): no significant effect; inhibition at 6 µM ([7]; Homo sapiens, 6 μM): ~10%
CCCCCCCCCCCCCCCCC(O)CN(CC)CC (stereo not drawn) [Compound A1, 1-DEA-amino-octadecan-2-ol]				40 ± 3		> 4	> 20	> 20	24 ± 4	17 ± 4	21 ± 1		solubility in ethanol and DMSO ([5]; 20 mM stock solutions): good solubility in both solvents
CCCCCCCCCCCCNCC(O)CCCCCCCCC (stereo not drawn) [Compound A10, 1-Dodecyl-amino-undecan-2-ol]	8 ± 2	4 ± 1	10 ± 2		4 ± 1							✓*	Caspase-3 increase (Caspase-3; 10 μM): 7 fold; anticancer activity (in words) [8]: most active; also recorded: highest activity; effect on SPM formation ([6]; 0.5 μM): ~8%; effect on SPM formation ([7]; 0.5 μM): about 22%; SPM formation related to the control (in words) [9]: reduction in SPM formation; SPM formation related to the control (in words) [10]: reduction in SPM formation
CCCCCCCCCCCCCCCCNCC(O)CCCCCCCCC (stereo not drawn) [Compound A12, 1-hexadecyl-amino-undecan-2-ol]	> 100	> 100	> 100		> 100							✓*	
CCCCCCCCCC(O)CNCCCCCC (stereo not drawn) [Compound A8, 1-Hexyl-amino-undecan-2-ol]			33 ± 6				> 20	> 20					IC50 [1, 17]: 33 ± 4 µM; IC50 [2, 18]: 16 ± 1 µM; IC50 [4, 19]: 22 ± 3 µM
CCCCCCCCCCCCCCCCC(O)CNCCCCCCCC (stereo not drawn) [Compound A4, 1-Octyl-amino-octadecan-2-ol]				29 ± 4		> 4	< 20	< 20	15 ± 6	14 ± 3	12 ± 2		
